Results reported in patent US20150031996A1, “SEMICONDUCTING POLYMER NANOPARTICLES AS PHOTOACOUSTIC MOLECULAR IMAGING PROBES” (The Board of Trustees of the Leland Stanford Junior …, priority 2013, published 2015).

Assay: Kinetic study of ROS-mediated degradation of IR775S (fluorescence at 800 nm)
Type: physicochemical
Conditions: presence of peroxynitrite (ONOO^−) and hypochlorite (ClO^−), 2 μM, 1×PBS pH=7.4
Experimental: FIGS. 26A and 26B illustrate a kinetic study of ROS-mediated degradation of 1R7755 by detecting its fluorescence decrease at 800 nm after addition of ROS.
FIG. 26B illustrates a time course of the fluorescence of 1R775S at 800 nm after addition of indicated ROS (FIG. 26B top: ONOO^−, ClO^−; FIG. 26B bottom: ^1O2 and H2O2) in 1×PBS (pH=7.4). [1R775]=1 μg/mL. [ROS]=2 μM.

Q: For `CN1C(=CC=C2CCCC(C=CC3=[N+](C)c4ccccc4C3(C)C)=C2SCCC(=O)O)C(C)(C)c2ccccc21.[O-][Cl+3]([O-])([O-])[O-]` [1R775S, 2-[4′-(β-carboxyethylthio)-7′-(1″,3″,3″-trimethylindolenine)-3′,5′-trimethyleneheptatrien-1-yl]-1,3,3-trimethylindolenium perchlorate], which “degradation by ROS” value is on record?
A: Its value is “nearly instant degradation”.
